Laboratory results published in BigSolDB 2.1.

## Nc1c(Cl)cc([N+](=O)[O-])cc1Cl
In 1,4-dioxane, 293.15 K
  solubility (mole fraction): 0.0251
In 1,4-dioxane, 298.15 K
  solubility (mole fraction): 0.0292
In 1,4-dioxane, 303.15 K
  solubility (mole fraction): 0.0337
In 1,4-dioxane, 308.15 K
  solubility (mole fraction): 0.0389
In 1,4-dioxane, 313.15 K
  solubility (mole fraction): 0.0447
In 1,4-dioxane, 318.15 K
  solubility (mole fraction): 0.0513
In 1,4-dioxane, 323.15 K
  solubility (mole fraction): 0.0598
In NMP, 278.15 K
  solubility (mole fraction): 0.135
In NMP, 283.15 K
  solubility (mole fraction): 0.141
In NMP, 288.15 K
  solubility (mole fraction): 0.149
In NMP, 293.15 K
  solubility (mole fraction): 0.159
In NMP, 298.15 K
  solubility (mole fraction): 0.169
In NMP, 303.15 K
  solubility (mole fraction): 0.179
In NMP, 308.15 K
  solubility (mole fraction): 0.189
In NMP, 313.15 K
  solubility (mole fraction): 0.199
In NMP, 318.15 K
  solubility (mole fraction): 0.211
In NMP, 323.15 K
  solubility (mole fraction): 0.227
In acetonitrile, 278.15 K
  solubility (mole fraction): 0.00152
In acetonitrile, 283.15 K
  solubility (mole fraction): 0.00176
In acetonitrile, 288.15 K
  solubility (mole fraction): 0.00211
In acetonitrile, 293.15 K
  solubility (mole fraction): 0.00249
In acetonitrile, 298.15 K
  solubility (mole fraction): 0.00293
In acetonitrile, 303.15 K
  solubility (mole fraction): 0.00352
In acetonitrile, 308.15 K
  solubility (mole fraction): 0.00411
In acetonitrile, 313.15 K
  solubility (mole fraction): 0.00487
In acetonitrile, 318.15 K
  solubility (mole fraction): 0.00577
In acetonitrile, 323.15 K
  solubility (mole fraction): 0.00665
In cyclohexane, 278.15 K
  solubility (mole fraction): 0.000119
In cyclohexane, 283.15 K
  solubility (mole fraction): 0.000147
In cyclohexane, 288.15 K
  solubility (mole fraction): 0.000185
In cyclohexane, 293.15 K
  solubility (mole fraction): 0.000236
In cyclohexane, 298.15 K
  solubility (mole fraction): 0.000301
In cyclohexane, 303.15 K
  solubility (mole fraction): 0.000389
In cyclohexane, 308.15 K
  solubility (mole fraction): 0.000501
In cyclohexane, 313.15 K
  solubility (mole fraction): 0.000617
In cyclohexane, 318.15 K
  solubility (mole fraction): 0.00074
In cyclohexane, 323.15 K
  solubility (mole fraction): 0.000906
In ethanol, 278.15 K
  solubility (mole fraction): 0.000879
In ethanol, 283.15 K
  solubility (mole fraction): 0.00102
In ethanol, 288.15 K
  solubility (mole fraction): 0.00123
In ethanol, 293.15 K
  solubility (mole fraction): 0.00149
In ethanol, 298.15 K
  solubility (mole fraction): 0.00183
In ethanol, 303.15 K
  solubility (mole fraction): 0.00222
In ethanol, 308.15 K
  solubility (mole fraction): 0.00268
In ethanol, 313.15 K
  solubility (mole fraction): 0.00325
In ethanol, 318.15 K
  solubility (mole fraction): 0.00384
In ethanol, 323.15 K
  solubility (mole fraction): 0.00455
In ethyl acetate, 278.15 K
  solubility (mole fraction): 0.0085
In ethyl acetate, 283.15 K
  solubility (mole fraction): 0.00938
In ethyl acetate, 288.15 K
  solubility (mole fraction): 0.0109
In ethyl acetate, 293.15 K
  solubility (mole fraction): 0.0126
In ethyl acetate, 298.15 K
  solubility (mole fraction): 0.0153
In ethyl acetate, 303.15 K
  solubility (mole fraction): 0.0177
In ethyl acetate, 308.15 K
  solubility (mole fraction): 0.0208
In ethyl acetate, 313.15 K
  solubility (mole fraction): 0.025
In ethyl acetate, 318.15 K
  solubility (mole fraction): 0.0291
In ethyl acetate, 323.15 K
  solubility (mole fraction): 0.0336
In ethylene glycol, 278.15 K
  solubility (mole fraction): 0.000815
In ethylene glycol, 283.15 K
  solubility (mole fraction): 0.000969
In ethylene glycol, 288.15 K
  solubility (mole fraction): 0.00117
In ethylene glycol, 293.15 K
  solubility (mole fraction): 0.00139
In ethylene glycol, 298.15 K
  solubility (mole fraction): 0.00167
In ethylene glycol, 303.15 K
  solubility (mole fraction): 0.00195
In ethylene glycol, 308.15 K
  solubility (mole fraction): 0.00236
In ethylene glycol, 313.15 K
  solubility (mole fraction): 0.00281
In ethylene glycol, 318.15 K
  solubility (mole fraction): 0.00338
In ethylene glycol, 323.15 K
  solubility (mole fraction): 0.00412
In isopropanol, 283.15 K
  solubility (mole fraction): 0.00093
In isopropanol, 288.15 K
  solubility (mole fraction): 0.00111
In isopropanol, 293.15 K
  solubility (mole fraction): 0.00133
In isopropanol, 298.15 K
  solubility (mole fraction): 0.00162
In isopropanol, 303.15 K
  solubility (mole fraction): 0.00195
In isopropanol, 308.15 K
  solubility (mole fraction): 0.00234
In isopropanol, 313.15 K
  solubility (mole fraction): 0.00281
In isopropanol, 318.15 K
  solubility (mole fraction): 0.00338
In isopropanol, 323.15 K
  solubility (mole fraction): 0.00413
In methanol, 278.15 K
  solubility (mole fraction): 0.000705
In methanol, 283.15 K
  solubility (mole fraction): 0.000814
In methanol, 288.15 K
  solubility (mole fraction): 0.000987
In methanol, 293.15 K
  solubility (mole fraction): 0.00121
In methanol, 298.15 K
  solubility (mole fraction): 0.0015
In methanol, 303.15 K
  solubility (mole fraction): 0.00182
In methanol, 308.15 K
  solubility (mole fraction): 0.00224
In methanol, 313.15 K
  solubility (mole fraction): 0.00267
In methanol, 318.15 K
  solubility (mole fraction): 0.00314
In methanol, 323.15 K
  solubility (mole fraction): 0.00377
In n-butanol, 278.15 K
  solubility (mole fraction): 0.00121
In n-butanol, 283.15 K
  solubility (mole fraction): 0.00148
In n-butanol, 288.15 K
  solubility (mole fraction): 0.00172
In n-butanol, 293.15 K
  solubility (mole fraction): 0.00216
In n-butanol, 298.15 K
  solubility (mole fraction): 0.0026
In n-butanol, 303.15 K
  solubility (mole fraction): 0.00308
In n-butanol, 308.15 K
  solubility (mole fraction): 0.00378
In n-butanol, 313.15 K
  solubility (mole fraction): 0.00446
In n-butanol, 318.15 K
  solubility (mole fraction): 0.00543
In n-butanol, 323.15 K
  solubility (mole fraction): 0.00638
In n-propanol, 278.15 K
  solubility (mole fraction): 0.00102
In n-propanol, 283.15 K
  solubility (mole fraction): 0.00123
In n-propanol, 288.15 K
  solubility (mole fraction): 0.00146
In n-propanol, 293.15 K
  solubility (mole fraction): 0.00176
In n-propanol, 298.15 K
  solubility (mole fraction): 0.00216
In n-propanol, 303.15 K
  solubility (mole fraction): 0.00258
In n-propanol, 308.15 K
  solubility (mole fraction): 0.00307
In n-propanol, 313.15 K
  solubility (mole fraction): 0.00364
In n-propanol, 318.15 K
  solubility (mole fraction): 0.00441
In n-propanol, 323.15 K
  solubility (mole fraction): 0.00546
In water, 278.15 K
  solubility (mole fraction): 1.88e-06
In water, 283.15 K
  solubility (mole fraction): 2.53e-06
In water, 288.15 K
  solubility (mole fraction): 3.43e-06
In water, 293.15 K
  solubility (mole fraction): 4.76e-06
In water, 298.15 K
  solubility (mole fraction): 6.43e-06
In water, 303.15 K
  solubility (mole fraction): 8.31e-06
In water, 308.15 K
  solubility (mole fraction): 1.06e-05
In water, 313.15 K
  solubility (mole fraction): 1.37e-05
In water, 318.15 K
  solubility (mole fraction): 1.72e-05
In water, 323.15 K
  solubility (mole fraction): 2.18e-05
